From US8273769B2, “Phenoxy acetic acid derivatives” (Merck Serono SA, priority 2009, dated 2012)

Target: T1, CRTH2 (Homo sapiens, UniProt Q9Y5Y4)
T1 sequence (Q9Y5Y4 1-395): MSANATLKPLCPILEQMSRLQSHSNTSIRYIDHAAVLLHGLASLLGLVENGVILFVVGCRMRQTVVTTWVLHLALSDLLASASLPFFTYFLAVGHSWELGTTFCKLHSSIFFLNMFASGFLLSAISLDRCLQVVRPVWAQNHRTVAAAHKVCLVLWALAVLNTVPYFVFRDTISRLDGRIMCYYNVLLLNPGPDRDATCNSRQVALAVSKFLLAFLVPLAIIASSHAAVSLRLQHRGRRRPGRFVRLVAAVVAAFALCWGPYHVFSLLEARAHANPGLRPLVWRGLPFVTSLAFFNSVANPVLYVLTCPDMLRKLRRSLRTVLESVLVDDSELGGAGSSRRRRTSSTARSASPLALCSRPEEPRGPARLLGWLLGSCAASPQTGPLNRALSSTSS
Experiment: Radioligand binding Scintillation Proximity Assay ([3H]PGD2, hCRTH2-CHO cell membranes)
Design: host or cells: CHO cells
Conditions: 1.5 nM [3H]PGD2, hCRTH2-CHO cell membranes, SPA
Description: Adherent CHO cells expressing hCRTH2 (Euroscreen, Belgium) were cultured in 225 cm^2 cell culture flasks (Corning, USA) in 30 ml of medium. After two rinses of phosphate buffered saline (PBS), cells were harvested in 10 ml of PBS containing 1 mM EDTA, centrifuged at 500×g for 5 min at 4° C. and frozen at −80° C. The pellet was re-suspended in 50 mM Tris-HCl, pH 7.4, 2 mM EDTA, 250 mM Sucrose, containing protease inhibitor cocktail tablets, (Complete EDTA-free, Roche, Germany) and incubated 30 min at 4° C. Cells were disrupted by nitrogen cavitation (Parr Instruments, USA) at 4° C. (800 p.s.i. for 30 min), and centrifuged at 500×g for 10 min at 4° C. Pellet containing nuclei and cellular debris was discarded and supernatant was centrifuged 60 min at 4° C. at 45000×g. Membrane pellet was re-suspended in storage buffer (10 mM HEPES/KOH pH 7.4, 1 mM EDTA, 250 mM sucrose, protease inhibitor cocktail tablets) using Dounce homogenization and frozen in liquid nitrogen, and stored at −80° C.
The inhibitory activity can be investigated by a radioligand binding Scintillation Proximity Assay (SPA) (Sawyer et al., Br. J. Pharmocol 2002, 137, 1163-72). The SPA radioligand binding assay was performed at room temperature in binding buffer (10 mM HEPES/KOH pH 7.4, 10 mM MnCl2, with protease inhibitor cocktail tablets), containing 1.5 nM [^3H]PGD2 (Perkin Elmer), 10-50 μg/ml of hCRTH2-CHO cell membrane protein and 2 mg/ml of Wheat-germ agglutinin Sintillation Proximity Assay beads (RPNQ0001, GE-Healthcare) in a final volume of 100 μl in 96 well plates (Corning, USA). Non-specific binding was determined in the presence of 10 μM PGD2 (Cayman, USA). Competing Compounds of Formula (I) were diluted in dimethylsulphoxide so that the total volume of dimethylsulfoxide was kept constant at 1% dimethylsulphoxide (Me2SO). Serial dilutions of 100 μM to 100 pM were prepared and 10 μl each of the compounds of Formula (I) stock solutions were added to the binding assay reagents and incubated for 90 min with agitation at room temperature. Binding activity was determined by using a 1450 Micro-beta scintillation counter (Wallac, UK).

Compound | IC50
Cc1ccc(S(=O)(=O)N2CCOCC2)cc1C#Cc1cc(Cl)ccc1OCC(=O)O [Example 82, (4-chloro-2-{[2-methyl-5-(morpholin-4-ylsulfonyl)phenyl]ethynyl}phenoxy)acetic acid] | 5 nM
CNS(=O)(=O)c1ccc(C)c(C#Cc2cc(Cl)ccc2OCC(=O)O)c1 [Example 84, [4-chloro-2-({2-methyl-5-[(methylamino)sulfonyl]phenyl}ethynyl)phenoxy]acetic acid] | 13 nM
CCCN(CC)C(=O)c1ccc(C#Cc2cc(Cl)ccc2OCC(=O)O)cc1S(=O)(=O)C(C)C [Example 166, (4-chloro-2-{[4-{[ethyl(propyl)amino]carbonyl}-3-(isopropylsulfonyl)phenyl]ethynyl}phenoxy)acetic acid] | 43 nM
CS(=O)(=O)c1cc(C#Cc2cc(Cl)ccc2OCC(=O)O)ccc1-c1ccc(Cl)cc1 [Example 144, (4-chloro-2-{[4′-chloro-2-(methylsulfonyl)biphenyl-4-yl]ethynyl}phenoxy)acetic acid] | 17 nM
Cc1ccc(N(C)S(C)(=O)=O)cc1C#Cc1cc(Cl)ccc1OCC(=O)O [Example 138, [4-chloro-2-({2-methyl-5-[methyl(methylsulfonyl)amino]phenyl}ethynyl)phenoxy]acetic acid] | 150 nM
O=C(O)COc1ccc(Cl)cc1C#Cc1ccccc1C(F)(F)F [Example 9, (4-chloro-2-{[2-(trifluoromethyl)phenyl]ethynyl}phenoxy)acetic acid] | 30 nM
CN(c1cncc(C#Cc2cc(Cl)ccc2OCC(=O)O)c1)S(C)(=O)=O [Example 47, [4-chloro-2-({5-[methyl(methylsulfonyl)amino]pyridin-3-yl}ethynyl)phenoxy]acetic acid] | 340 nM
CCS(=O)(=O)c1ccc(C)c(C#Cc2cc(Cl)ccc2OCC(=O)O)c1 [Example 50, (4-chloro-2-{[5-(ethylsulfonyl)-2-methylphenyl]ethynyl}phenoxy)acetic acid] | 11 nM
O=C(O)COc1ccc(C(F)(F)F)cc1C#Cc1ccccc1Cl [Example 41, [2-[(2-chlorophenyl)ethynyl]-4-(trifluoromethyl)phenoxy]acetic acid] | 15 nM
O=C(O)COc1ccc(Cl)cc1C#Cc1cccnc1 [Example 14, [4-chloro-2-(pyridin-3-ylethynyl)phenoxy]acetic acid] | 146 nM
CS(=O)(=O)c1cccc(C#Cc2cc(Cl)ccc2OCC(=O)O)c1 [Example 18, (4-chloro-2-{[3-(methylsulfonyl)phenyl]ethynyl}phenoxy)acetic acid] | 19 nM
CCS(=O)(=O)c1ccc(C)c(C#Cc2cc(C#N)ccc2OCC(=O)O)c1 [Example 63, (4-cyano-2-{[5-(ethylsulfonyl)-2-methylphenyl]ethynyl}phenoxy)acetic acid] | 33 nM
CCN(CC)C(=O)c1ccc(C#Cc2cc(Cl)ccc2OCC(=O)O)cc1S(=O)(=O)C(C)C [Example 165, (4-chloro-2-{[4-[(diethylamino)carbonyl]-3-(isopropylsulfonyl)phenyl]ethynyl}phenoxy)acetic acid] | 53 nM
O=C(O)COc1ccc(Cl)cc1C#Cc1ccc(C(=O)N2CCOCC2)cc1 [Example 124, (4-chloro-2-{[4-(morpholin-4-ylcarbonyl)phenyl]ethynyl}phenoxy)acetic acid] | 106 nM
CCC[S+]([O-])c1ccc(C)c(C#Cc2cc(Cl)ccc2OCC(=O)O)c1 (stereo not drawn) [Example 149, (4-chloro-2-{[2-methyl-5-(propylsulfinyl)phenyl]ethynyl}phenoxy)acetic acid] | 11 nM
CCCS(=O)(=O)c1cccc(C#Cc2nc(C)ccc2OCC(=O)O)c1 [Example 66, [(6-methyl-2-{[3-(propylsulfonyl)phenyl]ethynyl}pyridin-3-yl)oxy]acetic acid] | 193 nM
O=C(O)COc1ccc(Cl)cc1C#Cc1cc(CO)ccc1F [Example 25, (4-chloro-2-{[2-fluoro-5-(hydroxymethyl)phenyl]ethynyl}phenoxy)acetic acid] | 89 nM

Compound | IC50
CC1(C)C(=O)c2ccc(C#Cc3cc(Cl)ccc3OCC(=O)O)cc2S1(=O)=O [Example 158, {4-chloro-2-[(2,2-dimethyl-1,1-dioxido-3-oxo-2,3-dihydro-1-benzothien-6-yl)ethynyl]phenoxy}acetic acid] | 34 nM
CC(C)S(=O)(=O)c1cc(C#Cc2cc(Cl)ccc2OCC(=O)O)ccc1C(=O)N(C)C [Example 164, (4-chloro-2-{[4-[(dimethylamino)carbonyl]-3-(isopropylsulfonyl)phenyl]ethynyl}phenoxy)acetic acid] | 75 nM
CCCS(=O)(=O)c1cccc(C#Cc2cc(-c3sc(C)nc3C)ccc2OCC(=O)O)c1 [Example 132, (4-(2,4-dimethyl-1,3-thiazol-5-yl)-2-{[3-(propylsulfonyl)phenyl]ethynyl}phenoxy)acetic acid] | 68 nM
O=C(O)COc1ccc(Cl)cc1C#Cc1ccncc1 [Example 12, [4-chloro-2-(pyridin-4-ylethynyl)phenoxy]acetic acid] | 811 nM
CS(=O)(=O)c1ccc(O)c(C#Cc2cc(Cl)ccc2OCC(=O)O)c1 [Example 60, (4-chloro-2-{[2-hydroxy-5-(methylsulfonyl)phenyl]ethynyl}phenoxy)acetic acid] | 296 nM
COc1ccccc1C#Cc1cc(Cl)ccc1OCC(=O)O [Example 6, {4-chloro-2-[(2-methoxyphenyl)ethynyl]phenoxy}acetic acid] | 229 nM
CCCCN(C)S(=O)(=O)c1ccc(C)c(C#Cc2cc(Cl)ccc2OCC(=O)O)c1 [Example 111, {2-[(5-{[butyl(methyl)amino]sulfonyl}-2-methylphenyl)ethynyl]-4-chlorophenoxy}acetic acid] | 6 nM
O=C(O)COc1ccc(Cl)cc1C#Cc1ccc2c(c1)S(=O)(=O)C=C2 [Example 156, {4-chloro-2-[(1,1-dioxido-1-benzothien-6-yl)ethynyl]phenoxy}acetic acid] | 32 nM
CN(C)S(=O)(=O)c1cccc(C#Cc2cc(Cl)ccc2OCC(=O)O)c1 [Example 80, [4-chloro-2-({3-[(dimethylamino)sulfonyl]phenyl}ethynyl)phenoxy]acetic acid] | 19 nM
CS(=O)(=O)c1cc(C#Cc2cc(Cl)ccc2OCC(=O)O)ccc1-c1ccc(C(F)(F)F)cc1 [Example 143, (4-chloro-2-{[2-(methylsulfonyl)-4′-(trifluoromethyl)biphenyl-4-yl]ethynyl}phenoxy)acetic acid] | 50 nM
CCCS(=O)(=O)c1cccc(C#Cc2cc(F)ccc2OCC(=O)O)c1 [Example 99, (4-fluoro-2-{[3-(propylsulfonyl)phenyl]ethynyl}phenoxy)acetic acid] | 79 nM
Cc1ccc(S(=O)(=O)c2ccccc2)cc1C#Cc1cc(C#N)ccc1OCC(=O)O [Example 94, (4-cyano-2-{[2-methyl-5-(phenylsulfonyl)phenyl]ethynyl}phenoxy)acetic acid] | 11 nM
Cc1cc(F)c(S(C)(=O)=O)cc1C#Cc1cc(Cl)ccc1OCC(=O)O [Example 97, (4-chloro-2-{[4-fluoro-2-methyl-5-(methylsulfonyl)phenyl]ethynyl}phenoxy)acetic acid] | 8 nM
CCCS(=O)(=O)c1cccc(C#Cc2c(Cl)cccc2OCC(=O)O)c1 [Example 74, (3-chloro-2-{[3-(propylsulfonyl)phenyl]ethynyl}phenoxy)acetic acid] | 70 nM
CS(=O)(=O)c1ccc(N2CCCCC2)c(C#Cc2cc(C#N)ccc2OCC(=O)O)c1 [Example 62, (4-cyano-2-{[5-(methylsulfonyl)-2-piperidin-1-ylphenyl]ethynyl}phenoxy)acetic acid] | 202 nM
Cc1ccc(S(=O)(=O)C(C)C)cc1C#Cc1cc(C#N)ccc1OCC(=O)O [Example 68, (4-cyano-2-{[5-(isopropylsulfonyl)-2-methylphenyl]ethynyl}phenoxy)acetic acid] | 12 nM
